The values that follow come from ChEMBL document CHEMBL1155854, “Conformationally constrained farnesoid X receptor (FXR) agonists: Naphthoic acid-based analogs of GW 4064” (Bioorg Med Chem Lett, 2008).

The source made the active and inactive calls. No cut-off for these calls is given here.

Data set [1] can be described thus: Clearance in iv dosed mouse. Format: ADME, organism-based. Conditions: in vivo.
A short description of data set [2]: Solubility in simulated gastric fluid at pH 1. Format: physicochemical. Conditions: simulated gi fluid.
In data set [3] the test system is Rattus norvegicus. The experiment in a line: Reduction of serum bile acids level in alpha-naphthyl-isothiocyanate-induced rat acute cholestasis model at 100 to 300 mg/kg, po bid for 4 days dosed before 2 days induction by alpha-naphthyl-isothiocyanate. Format: functional, organism-based.
Data set [4] in a line: Half life in iv dosed cynomolgus monkey. Format: ADME, organism-based, Macaca fascicularis. Particulars: in vivo.
Data set [5] deals with Rattus norvegicus. The experiment in a line: Reduction of serum alkaline phosphatase level in alpha-naphthyl-isothiocyanate-induced rat acute cholestasis model at 100 to 300 mg/kg, po bid for 4 days dosed before 2 days induction by alpha-naphthyl-isothiocyanate. Format: functional, organism-based.
Data set [6] relates to Rattus norvegicus. Put plainly: Reduction of serum alanine aminotransferase level in alpha-naphthyl-isothiocyanate-induced rat acute cholestasis model at 100 to 300 mg/kg, po bid for 4 days dosed before 2 days induction by alpha-naphthyl-isothiocyanate. Format: functional, organism-based.
In data set [7] the target is Nuclear receptor subfamily 5 group A member 2 (Homo sapiens, UniProt O00482). Put plainly: Agonist activity at LRH assessed as receptor-coactivator peptide interaction by FRET assay. Type of data set: functional.
Another data set deals with Cytochrome P450 3A4 (Homo sapiens, UniProt P08684). The experiment in a line: Inhibition of CYP3A4 in pooled human liver microsome using midazolam substrate. Format: ADME, microsomes. For orientation: Microsomes from liver hold many membrane-bound enzymes, among them those of drug oxidation.
For a further data set, the target named is Cytochrome P450 2C9 (Homo sapiens, UniProt P11712). The experiment in a line: Inhibition of CYP2C9 in pooled human liver microsome. Format: ADME.
Another data set addresses T1, Bile acid receptor (Homo sapiens, UniProt Q96RI1).
T1 sequence (Q96RI1 whole entry): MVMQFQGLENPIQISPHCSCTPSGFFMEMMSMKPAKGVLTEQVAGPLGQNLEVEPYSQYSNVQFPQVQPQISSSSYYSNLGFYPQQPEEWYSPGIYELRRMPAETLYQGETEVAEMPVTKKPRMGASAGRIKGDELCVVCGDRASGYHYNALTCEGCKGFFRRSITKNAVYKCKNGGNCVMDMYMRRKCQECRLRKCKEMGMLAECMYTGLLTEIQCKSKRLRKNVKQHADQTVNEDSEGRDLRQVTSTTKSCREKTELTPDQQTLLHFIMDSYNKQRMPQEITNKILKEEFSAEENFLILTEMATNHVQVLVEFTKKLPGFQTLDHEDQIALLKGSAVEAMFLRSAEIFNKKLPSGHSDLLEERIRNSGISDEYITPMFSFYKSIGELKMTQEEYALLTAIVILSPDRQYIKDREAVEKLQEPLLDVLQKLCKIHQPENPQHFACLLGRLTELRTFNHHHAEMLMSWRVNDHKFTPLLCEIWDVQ
Put plainly: Agonist activity at FXR assessed as receptor-SRC-1 peptide interaction by FRET assay. Type of data set: functional.

A short description of data set [8]: Clearance in iv dosed rat. Type of data set: ADME, organism-based. Conditions: in vivo.
The nature of data set [9]: Oral bioavailability in Beagle dog at 5 mg/kg. Type of data set: ADME, organism-based, Canis lupus familiaris. Particulars: in vivo.
In the next data set the target is T2, Estrogen receptor (Homo sapiens, UniProt P03372).
T2 sequence (P03372 whole entry): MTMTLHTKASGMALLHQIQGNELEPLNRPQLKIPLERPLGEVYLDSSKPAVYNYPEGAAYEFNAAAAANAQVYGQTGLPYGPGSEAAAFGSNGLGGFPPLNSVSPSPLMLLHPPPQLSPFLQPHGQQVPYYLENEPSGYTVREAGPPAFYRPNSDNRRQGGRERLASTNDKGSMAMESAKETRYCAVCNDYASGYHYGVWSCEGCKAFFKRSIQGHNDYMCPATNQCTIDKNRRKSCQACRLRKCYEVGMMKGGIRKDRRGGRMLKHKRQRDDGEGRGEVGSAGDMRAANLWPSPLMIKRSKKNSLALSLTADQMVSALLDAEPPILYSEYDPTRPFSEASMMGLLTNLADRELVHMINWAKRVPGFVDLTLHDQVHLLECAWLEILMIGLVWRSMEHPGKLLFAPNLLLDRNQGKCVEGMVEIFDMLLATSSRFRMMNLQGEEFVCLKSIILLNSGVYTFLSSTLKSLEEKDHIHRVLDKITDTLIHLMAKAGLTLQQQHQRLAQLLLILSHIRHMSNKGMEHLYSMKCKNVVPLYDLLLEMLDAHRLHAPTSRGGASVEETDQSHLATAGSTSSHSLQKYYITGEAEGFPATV
Put plainly: Agonist activity at ERalpha by fluorescence polarization assay. Format: functional.

In data set [10] the target is T3, Bile acid receptor (Homo sapiens) (UniProt Q96RI1).
T3 sequence (whole entry): T1 sequence (Q96RI1 whole entry)
Put plainly: Agonist activity at FXR expressed in african green monkey CV1 cells by luciferase reporter transient transfection assay relative to GW-4064. Format: functional, cell-based. Particulars: CV-1. On the technique in general: In a reporter assay the amount or activity of a reporter protein is the signal.

Data set [11] deals with T4, Nuclear receptor ROR-alpha (Homo sapiens, UniProt P35398).
T4 sequence (P35398 whole entry): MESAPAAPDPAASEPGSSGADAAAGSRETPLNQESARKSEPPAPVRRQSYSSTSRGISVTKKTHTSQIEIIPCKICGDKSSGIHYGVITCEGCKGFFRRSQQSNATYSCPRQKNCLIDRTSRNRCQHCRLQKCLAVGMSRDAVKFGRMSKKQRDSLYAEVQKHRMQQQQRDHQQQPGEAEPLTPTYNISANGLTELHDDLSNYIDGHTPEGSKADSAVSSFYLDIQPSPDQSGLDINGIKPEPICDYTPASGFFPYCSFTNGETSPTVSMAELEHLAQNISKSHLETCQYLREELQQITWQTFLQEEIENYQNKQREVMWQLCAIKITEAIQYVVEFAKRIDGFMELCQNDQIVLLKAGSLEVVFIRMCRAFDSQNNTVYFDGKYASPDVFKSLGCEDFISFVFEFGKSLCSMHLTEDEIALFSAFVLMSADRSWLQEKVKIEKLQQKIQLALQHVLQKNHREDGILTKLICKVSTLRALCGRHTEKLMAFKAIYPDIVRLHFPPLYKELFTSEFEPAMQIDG
Put plainly: Agonist activity at RORalpha assessed as receptor-coactivator peptide interaction by FRET assay. Format: functional.

The nature of data set [12]: Oral bioavailability in cynomolgus monkey at 5 mg/kg. Format: ADME, organism-based, Macaca fascicularis. Conditions: in vivo.
Data set [13] can be described thus: Clearance in iv dosed Beagle dog. Type of data set: ADME, organism-based, Canis lupus familiaris. Particulars: in vivo.
The target of another data set is T5, PXR (Homo sapiens, UniProt O75469).
T5 sequence (O75469 whole entry): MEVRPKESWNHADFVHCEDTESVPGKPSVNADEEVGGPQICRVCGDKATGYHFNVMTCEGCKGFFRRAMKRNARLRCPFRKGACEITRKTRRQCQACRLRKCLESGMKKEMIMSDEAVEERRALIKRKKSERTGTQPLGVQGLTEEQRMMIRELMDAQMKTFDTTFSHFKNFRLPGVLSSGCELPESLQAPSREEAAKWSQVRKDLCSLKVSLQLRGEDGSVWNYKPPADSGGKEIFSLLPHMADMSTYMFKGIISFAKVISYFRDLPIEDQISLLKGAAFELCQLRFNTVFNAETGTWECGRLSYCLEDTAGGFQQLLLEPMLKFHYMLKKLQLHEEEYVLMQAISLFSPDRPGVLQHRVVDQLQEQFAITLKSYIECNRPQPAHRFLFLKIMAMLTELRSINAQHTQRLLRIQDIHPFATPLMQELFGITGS
Put plainly: Agonist activity at PXR by SPA assay relative to GW-4064. Type of data set: functional. Particulars: read-out: %max.

Nuclear receptor subfamily 5 group A member 2, sequence (O00482 whole entry): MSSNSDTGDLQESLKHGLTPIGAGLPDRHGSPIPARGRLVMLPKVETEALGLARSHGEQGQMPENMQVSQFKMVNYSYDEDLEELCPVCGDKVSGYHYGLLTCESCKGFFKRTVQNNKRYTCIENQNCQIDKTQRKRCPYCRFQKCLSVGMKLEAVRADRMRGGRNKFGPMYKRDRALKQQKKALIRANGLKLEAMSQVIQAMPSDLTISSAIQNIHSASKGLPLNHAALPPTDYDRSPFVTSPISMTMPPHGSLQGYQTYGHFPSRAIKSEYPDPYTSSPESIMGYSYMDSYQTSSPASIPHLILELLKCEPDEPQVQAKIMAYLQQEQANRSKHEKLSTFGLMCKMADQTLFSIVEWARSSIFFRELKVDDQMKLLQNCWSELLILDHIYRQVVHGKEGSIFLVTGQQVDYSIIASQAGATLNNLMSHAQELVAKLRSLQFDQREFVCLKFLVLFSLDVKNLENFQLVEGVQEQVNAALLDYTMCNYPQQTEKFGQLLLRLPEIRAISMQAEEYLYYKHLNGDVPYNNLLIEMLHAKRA
Cytochrome P450 3A4, sequence (P08684 whole entry): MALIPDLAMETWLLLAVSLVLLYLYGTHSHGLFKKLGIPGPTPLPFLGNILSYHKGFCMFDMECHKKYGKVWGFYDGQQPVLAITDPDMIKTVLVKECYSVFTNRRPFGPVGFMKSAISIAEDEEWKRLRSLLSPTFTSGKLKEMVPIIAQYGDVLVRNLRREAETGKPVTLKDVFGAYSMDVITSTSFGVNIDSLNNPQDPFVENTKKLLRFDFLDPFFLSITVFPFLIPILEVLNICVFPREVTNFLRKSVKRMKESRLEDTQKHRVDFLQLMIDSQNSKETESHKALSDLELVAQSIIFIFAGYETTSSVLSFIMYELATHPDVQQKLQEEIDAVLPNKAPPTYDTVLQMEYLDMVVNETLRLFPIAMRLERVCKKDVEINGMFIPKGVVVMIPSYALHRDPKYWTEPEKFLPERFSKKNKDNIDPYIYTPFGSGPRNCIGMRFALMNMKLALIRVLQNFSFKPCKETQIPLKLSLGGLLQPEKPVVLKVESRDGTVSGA
Cytochrome P450 2C9, sequence (P11712 whole entry): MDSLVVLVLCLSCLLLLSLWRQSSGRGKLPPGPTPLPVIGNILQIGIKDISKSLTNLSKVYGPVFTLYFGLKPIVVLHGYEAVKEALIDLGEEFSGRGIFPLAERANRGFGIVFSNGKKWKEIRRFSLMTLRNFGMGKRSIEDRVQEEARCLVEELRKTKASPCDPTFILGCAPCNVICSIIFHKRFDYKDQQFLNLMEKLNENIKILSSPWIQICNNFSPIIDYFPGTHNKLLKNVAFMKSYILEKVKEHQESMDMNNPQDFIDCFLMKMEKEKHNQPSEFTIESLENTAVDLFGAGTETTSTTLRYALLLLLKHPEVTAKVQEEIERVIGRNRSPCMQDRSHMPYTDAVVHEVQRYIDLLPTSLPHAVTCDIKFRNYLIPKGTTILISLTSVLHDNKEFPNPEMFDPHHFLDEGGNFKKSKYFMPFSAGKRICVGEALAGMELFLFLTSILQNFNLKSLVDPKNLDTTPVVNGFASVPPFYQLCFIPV

As a reminder, the clearance is the volume of plasma or blood freed of the substance per unit of time. Usually solubility stands for how much of the substance goes into solution per volume. As usually defined, the half-life is how long it takes for the measured level to halve. The IC50 is the point on the concentration scale where inhibition reaches its midpoint. For orientation: EC50 means the concentration that produces a half-maximal response. What is called bioavailability is the share of a dose that reaches the circulation, judged against a reference dose that is usually intravenous. As for `CC(C)c1onc(-c2c(Cl)cccc2Cl)c1COc1ccc(-c2ccc3c(C(=O)O)cccc3c2)cc1`, the clearance was 7 mL/min/kg in data set [1], 57 mL/min/kg in data set [8] and 2 mL/min/kg in [13]. This compound showed a solubility in [2] below 1 ng/mL. In addition, the outcome in the data set with Rattus norvegicus [3], with Rattus norvegicus [5] and in the data set with Rattus norvegicus [6] was Active. This compound also yielded a half-life in data set [4] of 90 min. In addition, the XC50 is above 10 µM in data set [7], above 20 µM at Estrogen receptor and above 10 µM in [11]. Further, the half-maximal inhibitory concentration (IC50) against Cytochrome P450 3A4 was 7.2 µM; against Cytochrome P450 2C9, 17 µM. Also, the 50% effective concentration (EC50) on Bile acid receptor amounted to 87 nM. For the same compound, the values for the bioavailability in [9] and in data set [12] were 56% and 34%, respectively. The compound also displayed a %max in [10] of 104%. Moreover, at PXR, the Emax came to 63%.
